According to patent US12178908B2, “Tolerogenic liposomes and methods of use thereof” (AnTolRx, Inc., priority 2018, dated 2024):
≈ marks a conversion by molar mass, not a printed value. Read-outs that look alike come from different tables or passages of the source.

Assays:
splenocytes of 2D2 mice = test: Proliferation of 2D2 splenocytes stimulated in vitro (Cell Titer Blue); assay type: cell-based; conditions: 10 μg MOG; 1 μg ITE; 72 hours at 37° C.
Description: Splenocytes were harvested from 2D2 mice, which express a transgenic 2D2 T cell […] (TCR) specific for MOG35-55 and stimulated in vitro with 10 μg of MOG delivered either freely (Free MOG), loaded in egg-PC liposomes alone (MOG-L) or loaded in egg-PC liposomes and additionally stimulated with ITE-loaded egg-PC liposomes (at a dose of 1 μg ITE). Cell proliferation was assessed after incubation at 37° C. for 72 hours using a Cell Titer Blue cell proliferation assay.

[1] = assay type: physicochemical
Description: A stability assessment was performed in which liposomes from batch 1 were stored in HBS for one month at 4° C. and re-assayed.
• Lipid ratios were varied in the following range for each lipid: • Egg PC or HEPC: ˜53-72 mol % • Cholesterol: ˜25-44 mol % • PEG2000-PE: 1.5 to 6.25 mol % ITE was fixed at 0.5% by weight to the total lipid mass for all the batches tested. ITE was added from a DMSO stock. Batches were observed daily for any signs of precipitation/aggregation

[2] = Solubility of ITE in conventional solvents; assay type: physicochemical
Source text: 2-(1H-Indol-3-ylcarbonyl)-4-thiazolecarboxylic acid methyl ester (ITE) is a potent aryl hydrocarbon receptor agonist which is difficult to formulate in nanoparticulate form (including gold and PLGA nanoparticles and many conventional liposomal compositions, for example). […] ITE is also highly prone to self-aggregation.

EAE = conditions: cited from earlier work

Q: With “Free MOG: MOG35-55 peptide MEVGWYRSPFSRVVHLYRNGK (SEQ ID NO: 82) delivered freely” as the compound, how does the 2D2 cell proliferation (splenocytes of 2D2 mice) read?
A: induced 2D2 cell proliferation

Q: Which “stability (observation)” value [1] does the source give for DMPC here?
A: in liposome, not stable

Q: For `COC(=O)c1csc(C(=O)c2c[nH]c3ccccc23)n1` [ITE, 2-(1H-Indol-3-ylcarbonyl)-4-thiazolecarboxylic acid methyl ester], which solubility ([2]; ethanol, organic solvent or mixture) is on record?
A: ~3300 µM (≈ 945 µg/mL)

Q: What about the solubility ([2]; methanol, organic solvent or mixture) of the same compound?
A: ~3000 µM (≈ 859 µg/mL)

Q: And the solubility ([2]; water)?
A: ~115 µM (≈ 32.9 µg/mL)

Q: And the EAE amelioration (EAE; daily 200 μg per mouse, i.p. or orally, Quintana et al. PNAS 2010)?
A: ameliorated

Q: Which “potency relative to ITE in most in vivo studies” value (EAE; TCDD vs ITE) does the source give for `Clc1cc2c(cc1Cl)Oc1cc(Cl)c(Cl)cc1O2` [TCDD, 2,3,7,8-tetrachlorodibenzo-p-dioxin] here?
A: ~1,000 fold

Q: And the EAE amelioration (EAE; dose of 100 ng, Quintana et al. Nature 2008)?
A: not

Q: And the EAE amelioration (EAE; dose of 1 μg, Quintana et al. Nature 2008)?
A: ameliorated EAE
